Read-outs that look alike come from different tables or passages of the source.
Key:
AKT1 (PKB α) = AKT1 (PKB α) (Homo sapiens, UniProt P31749); assay: Kinase selectivity for OMS14; assay type: biochemical
PDK1 Direct = biological target: T1, PDK1 Direct (Homo sapiens, UniProt O15530); assay: Kinase selectivity for OMS14; assay type: biochemical
T1 sequence (O15530 1-556): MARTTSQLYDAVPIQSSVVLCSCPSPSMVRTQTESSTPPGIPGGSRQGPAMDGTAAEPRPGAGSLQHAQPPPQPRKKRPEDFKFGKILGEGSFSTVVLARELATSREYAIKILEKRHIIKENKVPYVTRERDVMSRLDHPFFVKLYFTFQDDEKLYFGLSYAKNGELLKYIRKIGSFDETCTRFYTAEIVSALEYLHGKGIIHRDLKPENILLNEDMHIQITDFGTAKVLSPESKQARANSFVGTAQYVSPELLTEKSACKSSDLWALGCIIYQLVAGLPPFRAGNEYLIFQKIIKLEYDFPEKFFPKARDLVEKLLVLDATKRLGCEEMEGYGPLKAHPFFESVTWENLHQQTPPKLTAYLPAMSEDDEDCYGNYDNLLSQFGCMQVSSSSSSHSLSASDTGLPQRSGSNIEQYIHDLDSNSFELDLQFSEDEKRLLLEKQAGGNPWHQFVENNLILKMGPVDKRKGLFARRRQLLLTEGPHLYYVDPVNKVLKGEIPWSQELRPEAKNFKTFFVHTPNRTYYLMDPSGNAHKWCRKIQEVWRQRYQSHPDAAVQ

[1] = read-out: % of inhibition (mean)
[2] = read-out: % of inhibition, point 1
[3] = read-out: % of inhibition, point 2

Sequence of AKT1 (PKB α) (P31749 whole entry): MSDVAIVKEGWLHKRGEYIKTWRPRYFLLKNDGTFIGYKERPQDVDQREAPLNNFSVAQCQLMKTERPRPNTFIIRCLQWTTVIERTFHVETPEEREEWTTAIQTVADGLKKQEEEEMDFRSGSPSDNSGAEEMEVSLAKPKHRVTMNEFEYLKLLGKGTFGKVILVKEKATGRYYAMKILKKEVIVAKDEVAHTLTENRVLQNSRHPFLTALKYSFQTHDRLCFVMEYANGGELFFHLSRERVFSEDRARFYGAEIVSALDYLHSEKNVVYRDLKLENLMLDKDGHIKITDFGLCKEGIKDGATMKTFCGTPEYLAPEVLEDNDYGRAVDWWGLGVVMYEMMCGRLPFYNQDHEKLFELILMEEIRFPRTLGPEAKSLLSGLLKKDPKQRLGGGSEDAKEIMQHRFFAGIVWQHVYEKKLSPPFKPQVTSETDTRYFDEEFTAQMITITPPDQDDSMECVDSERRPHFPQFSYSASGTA

O=C(CN1CCN(CC(=O)Nc2nc3ccccc3s2)CC1)Nc1ccc([N+](=O)[O-])cc1 [OMS14, N-(benzo[d]thiazol-2-yl)-2-(4-(2-((4-nitrophenyl)amino)-2-oxoethyl)piperazin-1-yl)acetamide]
inhibition at 100 µM (AKT1 (PKB α); [1]): 14%
inhibition at 100 µM (AKT1 (PKB α); [2]): 11%
inhibition at 100 µM (AKT1 (PKB α); [3]): 17%
inhibition at 100 µM (PDK1 Direct; [1]): -7%
inhibition at 100 µM (PDK1 Direct; [2]): -6%
inhibition at 100 µM (PDK1 Direct; [3]): -8%
